For twelve compounds, GI50, TGI and CC50 results are on record in patent US12384800B2, “Antitumoral compounds” (priority 2017, dated 2025).

Common to all, as to experiment: cells
Data set [1] concerns A549 cells (lung carcinoma, NSCLC). The conditions noted are these: A549, SRB; for GI50: 72 hours treatment; for TGI: total cell growth inhibition; for TGI / CC50: 72 hours; for CC50: read-out: LC50, 50% net cell killing. An excerpt: (§1) The aim of this assay is to evaluate the in vitro cytostatic (ability to delay or arrest tumor cell growth) or cytotoxic (ability to kill tumor cells) activity of the samples being tested.
(§2) A colorimetric assay, using sulforhodamine B (SRB) reaction has been adapted to provide a quantitative measurement of cell growth and viability (following the technique described by Skehan et al. J. Natl. Cancer Inst. 1990, 82, 1107-1112). Another colorimetric assay based on 3-(4,5-Dimethylthiazol-2-yl)-2,5-diphenyltetrazolium bromide (MTT) reduction to a purple formazan has been also used to assess the antiproliferative activity (following the technique described by Mosmann et al. J. Immunol. Meth. 1983, 65, 55-63).
(§3) These forms of assays employ 96-well cell culture microplates following the standards of the American National Standards Institute and the Society for Laboratory Automation and Screening (ANSI SLAS 1-2004 (R2012) Oct. 12, 2011. All the cell lines used in this study were obtained from the American Type Culture Collection (ATCC) and derive from different types of human cancer.
(§4) A549, HT29, MDA-MB-231 and PSN1 cells were maintained in Dulbecco's Modified Eagle Medium (DMEM) while PC-3 and 22Rv1 cells were maintained in Roswell Park Memorial Institute Medium (RPMI). All cell lines were supplemented with 10% Fetal Bovine Serum (FBS), 2 mM L-glutamine, 100 U/mL penicillin, and 100 […] at 37° C., 5% CO2 and 98% humidity. For the experiments, cells were harvested from subconfluent cultures using trypsinization and resuspended in fresh medium before counting and plating.
(§5) A549, HT29, MDA-MB-231 and PSN1 cells were seeded in 96 well microtiter plates, at 5000 cells per well in aliquots of 150 μL, and allowed to attach to the plate surface for 18 hours (overnight) in drug free medium. After that, one control (untreated) plate of each cell line was fixed (as described below) and used for time zero reference value. Culture plates were then treated with test compounds (50 μL aliquots of 4× stock solutions in complete culture medium plus 4% DMSO) using ten ⅖ serial dilutions (concentrations ranging from 10 to 0.003 μg/mL) and triplicate cultures (1% final concentration in DMSO). After 72 hours treatment, the antitumor effect was measured by using the SRB methodology: Briefly, cells were washed twice with PBS, fixed for 15 min in 1% glutaraldehyde solution at room temperature, rinsed twice in PBS, and stained in 0.4% SRB solution for 30 min at room temperature. Cells were then rinsed several times with 1% acetic acid solution and air-dried at room temperature.
(§6) Effects on cell growth and survival were estimated by applying the NCI algorithm (Boyd M R and Paull K D. Drug Dev. Res. 1995, 34, 91-104). The values obtained in triplicate cultures were fitted by nonlinear regression to a four-parameters logistic curve by nonlinear regression analysis.

The subject of data set [2] is PSN1 cells (pancreas adenocarcinoma). The conditions noted are these: PSN1, SRB; for GI50: 72 hours treatment; for TGI: total cell growth inhibition; for TGI / CC50: 72 hours; for CC50: read-out: LC50, 50% net cell killing.
Text: as §1, §2, §3, §4, §5, §6

Data set [3] concerns MDA-MB-231 cells (breast adenocarcinoma). The conditions noted are these: for TGI: total cell growth inhibition; for TGI / CC50: 72 hours; for CC50: read-out: LC50, 50% net cell killing.
Text: as §1, §2, §3, §4, §5, §6

Data set [4] relates to HT29 cells (colorectal adenocarcinoma). The conditions noted are these: HT29, SRB; for TGI: total cell growth inhibition; for TGI / CC50: 72 hours; for CC50: read-out: LC50, 50% net cell killing; for GI50: 72 hours treatment.
Text: as §1, §2, §3, §4, §5, §6

[5] abbreviates: MDA-MB-231, 72 hours treatment, SRB.

The GI50 is the concentration that inhibits growth by half. Read a low GI50 as more potent growth inhibition. For the compound `COc1c(C)cc2c(c1O)[C@@H]1[C@@H]3[C@@H]4SC[C@]5(N[C@H](C)Cc6c5[nH]c5ccccc65)C(=O)OC[C@@H](c5c6c(c(C)c(OC(C)=O)c54)OCO6)N3[C@@H](C#N)[C@H](C2)N1C` [A, reference compound], the concentration for 50% growth inhibition (GI50) was found to be 8.36 nM in data set [1], 12.9 nM in data set [2] and 7.07 nM in data set [3] (setting [5]). Moreover, the TGI in data set [1] is 8.87E−09 Molar; in data set [2], 1.54E−08 Molar; in data set [3] (MDA-MB-231, SRB), 9.38E−09 Molar; in data set [4], 8.36E−09 Molar. For the same compound, the CC50 was > 129 nM in data set [1]; 19.3 nM in data set [2]; 14.1 nM in data set [3] (MDA-MB-231, SRB); > 129 nM in data set [4].
On to `COc1c(C)cc2c(c1O)[C@@H]1[C@@H]3[C@@H]4SC[C@]5(N[C@@H](C)Cc6c5[nH]c5ccccc65)C(=O)OC[C@@H](c5c6c(c(C)c(OC(C)=O)c54)OCO6)N3[C@@H](C#N)[C@H](C2)N1C` [B, reference compound], for which the GI50 came out at 20.6 nM in data set [1], 19.3 nM in data set [2], 9 nM in data set [3] (setting [5]) and 8.48 nM in data set [4]. The TGI in data set [1] was 2.19E−08 Molar; in data set [2], 2.06E−08 Molar; in data set [3] (MDA-MB-231, SRB), 1.67E−08 Molar; in data set [4] it was 9.13E−09 Molar. Further, the CC50 is > 129 nM in data set [1]; 23.1 nM in data set [2]; 34.7 nM in data set [3] (MDA-MB-231, SRB); > 129 nM in data set [4].
Turning to `COc1c(C)cc2c(c1O)[C@@H]1[C@@H]3[C@@H]4SC[C@]5(N[C@@H](CO)Cc6c5[nH]c5ccccc65)C(=O)OC[C@@H](c5c6c(c(C)c(OC(C)=O)c54)OCO6)N3[C@@H](C#N)[C@H](C2)N1C` [Compound 3-R], the GI50 in data set [1] stood at 403 nM; in data set [2] it was 0.39 nM. For the same compound, the TGI is 5.79E−10 Molar in data set [1]; 6.05E−10 Molar in data set [2]; 5.04E−10 Molar in data set [3] (MDA-MB-231, SRB); >1.26E−07 Molar in data set [4]. The CC50 is > 126 nM in data set [1]; > 126 nM in data set [2]; 1.25 nM in data set [3] (MDA-MB-231, SRB); > 126 nM in data set [4].
With `COc1c(C)cc2c(c1O)[C@@H]1[C@@H]3[C@@H]4SC[C@]5(N[C@H](COC(C)=O)Cc6c5[nH]c5ccccc65)C(=O)OC[C@@H](c5c6c(c(C)c(OC(C)=O)c54)OCO6)N3[C@@H](C#N)[C@H](C2)N1C` [Compound 3a-S], the GI50 in data set [1] is 3.11 nM; in data set [2] it was 2.15 nM; in data set [3] (setting [5]) it was 2.87 nM; in data set [4] it was 2.99 nM. For the same compound, the TGI in data set [1] was 3.23E−09 Molar; in data set [2], 3.59E−09 Molar; in data set [3] (MDA-MB-231, SRB), 3.59E−09 Molar; in data set [4], 3.23E−09 Molar. Besides, the CC50 in data set [1] was > 120 nM; in data set [2], 12 nM; in data set [3] (MDA-MB-231, SRB), 4.9 nM; in data set [4] it was > 120 nM.
Regarding `C=CCOC(=O)NC[C@H]1Cc2c([nH]c3ccccc23)[C@@]2(CS[C@@H]3c4c(OC(C)=O)c(C)c5c(c4[C@H](COC2=O)N2[C@@H]3[C@H]3c4c(cc(C)c(OC)c4O)C[C@@H]([C@@H]2C#N)N3C)OCO5)N1` [Compound 10-R], in data set [4], the TGI is >1.14E−07 Molar and the CC50 is > 114 nM.
On to `COc1c(C)cc2c(c1O)[C@@H]1[C@@H]3[C@@H]4SC[C@]5(N[C@@H](CN)Cc6c5[nH]c5ccccc65)C(=O)OC[C@@H](c5c6c(c(C)c(OC(C)=O)c54)OCO6)N3[C@@H](C#N)[C@H](C2)N1C` [Compound 11-R], for which, in data set [1], halving of growth (GI50) required 1.77 nM, the TGI is given as 4.54E−09 Molar and the CC50 is > 126 nM. Besides, in data set [2], it took 1.39 nM to inhibit growth by half (GI50), the TGI was found to be 1.89E−09 Molar and the CC50 is > 126 nM. Also, in data set [4], the concentration for 50% growth inhibition (GI50) was 1.39 nM, the TGI is reported as >1.26E−07 Molar and the CC50 was > 126 nM.
As for `COc1c(C)cc2c(c1O)[C@@H]1[C@@H]3[C@@H]4SC[C@]5(N[C@H](CN)Cc6c5[nH]c5ccccc65)C(=O)OC[C@@H](c5c6c(c(C)c(OC(C)=O)c54)OCO6)N3[C@@H](C#N)[C@H](C2)N1C` [Compound 11-S], the CC50 in data set [1] is > 126 nM. In addition, in data set [4], the TGI was >1.26E−07 Molar and the CC50 was > 126 nM.
As to `COc1c(C)cc2c(c1O)[C@@H]1[C@@H]3[C@@H]4SC[C@]5(N[C@H](C(=O)O)Cc6c5[nH]c5ccccc65)C(=O)OC[C@@H](c5c6c(c(C)c(OC(C)=O)c54)OCO6)N3[C@@H](C#N)[C@H](C2)N1C` [Compound 14-S, reference compound], the GI50 is > 124 nM in data set [1], > 124 nM in data set [2], 54.5 nM in data set [3] (setting [5]) and 121 nM in data set [4]. Further, the TGI was >1.24E−07 Molar in data set [1]; >1.24E−07 Molar in data set [2]; 1.13E−07 Molar in data set [3] (MDA-MB-231, SRB); >1.24E−07 Molar in data set [4]. The CC50 in data set [1] is > 124 nM; in data set [2], > 124 nM; in data set [3] (MDA-MB-231, SRB) it was > 124 nM; in data set [4], > 124 nM.
Regarding `COc1ccc2[nH]c3c(c2c1)C[C@H](CO)N[C@]31CS[C@@H]2c3c(OC(C)=O)c(C)c4c(c3[C@H](COC1=O)N1[C@@H]2[C@H]2c3c(cc(C)c(OC)c3O)C[C@@H]([C@@H]1C#N)N2C)OCO4` [Compound 18-R], the TGI is 1.34E−09 Molar in data set [1]; 1.06E−09 Molar in data set [2]; 1.34E−09 Molar in data set [3] (MDA-MB-231, SRB); 1.34E−09 Molar in data set [4]. For the same compound, in data set [2], growth was halved (GI50) at 0.57 nM. Moreover, the CC50 in data set [3] (MDA-MB-231, SRB) was 1.46 nM.
Regarding `COc1ccc2[nH]c3c(c2c1)C[C@@H](CO)N[C@]31CS[C@@H]2c3c(OC(C)=O)c(C)c4c(c3[C@H](COC1=O)N1[C@@H]2[C@H]2c3c(cc(C)c(OC)c3O)C[C@@H]([C@@H]1C#N)N2C)OCO4` [Compound 18-S], the GI50 in data set [1] was 1.7 nM; in data set [2], 0.959 nM. The TGI in data set [1] is on record as 3.03E−09 Molar; in data set [2] it was 1.34E−09 Molar; in data set [3] (MDA-MB-231, SRB), 1.34E−09 Molar; in data set [4], 1.34E−09 Molar. Moreover, the CC50 in data set [3] (MDA-MB-231, SRB) was found to be 1.58 nM.
As to `C=CCOC(=O)NC[C@H]1Cc2c([nH]c3ccc(OC)cc23)[C@@]2(CS[C@@H]3c4c(OC(C)=O)c(C)c5c(c4[C@H](COC2=O)N2[C@@H]3[C@H]3c4c(cc(C)c(OC)c4O)C[C@@H]([C@@H]2C#N)N3C)OCO5)N1` [Compound 25-R], the GI50 in data set [1] was found to be 1.32 nM; in data set [4], 1.54 nM. Besides, the TGI in data set [1] came out at 2.43E−09 Molar; in data set [2], 2.32E−09 Molar; in data set [3] (MDA-MB-231, SRB) it was 2.54E−09 Molar; in data set [4] it was 2.76E−09 Molar. The CC50 in data set [1] is 9.92 nM; in data set [2], 6.73 nM; in data set [3] (MDA-MB-231, SRB), 8.38 nM; in data set [4], > 110 nM.
`C=CCOC(=O)NC[C@@H]1Cc2c(oc3ccccc23)[C@@]2(CS[C@@H]3c4c(OC(C)=O)c(C)c5c(c4[C@H](COC2=O)N2[C@@H]3[C@H]3c4c(cc(C)c(OC)c4O)C[C@@H]([C@@H]2C#N)N3C)OCO5)N1` [Compound 45-S] displayed a GI50 in data set [3] (Homo sapiens, MDA-MB-231, 72 h) of 11.7 nM. This counts as double-digit nanomolar.
